Values joined by “and” are separate entries in the source; they are usually repeats but may differ in a detail not shown here. Equal entries are not always repeated. Toxic doses and inconclusive results are not listed.
Test system: P388 leukemia ip, CD2F1 mice, survival T/C
Assay: NCI In Vivo Anticancer Drug Screen. Data for tumor model P388 Leukemia (intraperitoneal) in CD2F1 (CDF1) mice
Conditions: endpoint: median survival time, higher = longer survival
Outline: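 Mice carrying the transplanted tumor received test compound or vehicle. Survival was recorded in each group, and the value is the treated-group measurement divided by that of the vehicle-treated control group.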

[1] = dose: 25.0 mg/kg/injection, schedule: Q01DX001 (ip), vehicle: Klucel (hydroxypropylcellulose) (HPC)
[2] = dose: 15.0 mg/kg/injection, schedule: Q01DX005 (ip), vehicle: Klucel (hydroxypropylcellulose) (HPC)
[3] = dose: 30.0 mg/kg/injection, schedule: Q01DX005 (ip), vehicle: Klucel (hydroxypropylcellulose) (HPC)
[4] = dose: 50.0 mg/kg/injection, schedule: Q01DX005 (ip), vehicle: saline with Tween-80
[5] = dose: 100.0 mg/kg/injection, schedule: Q01DX005 (ip), vehicle: saline with Tween-80
[6] = dose: 200.0 mg/kg/injection, schedule: Q01DX005 (ip), vehicle: saline with Tween-80
[7] = dose: 25.0 mg/kg/injection, schedule: Q01DX009 (ip), vehicle: other
[8] = dose: 50.0 mg/kg/injection, schedule: Q01DX009 (ip), vehicle: other
[9] = dose: 100.0 mg/kg/injection, schedule: Q01DX009 (ip), vehicle: other
[10] = dose: 200.0 mg/kg/injection, schedule: Q01DX009 (ip), vehicle: other
[11] = dose: 50.0 mg/kg/injection, schedule: Q01DX005 (ip), vehicle: Klucel (hydroxypropylcellulose) (HPC)

In the case of `O=NN(CCF)C(=O)Oc1ccc([N+](=O)[O-])cc1`, the T/C (dose: 12.5 mg/kg/injection, schedule: Q01DX001 (ip), vehicle: Klucel (hydroxypropylcellulose) (HPC)) was 114 % of control and the T/C [1] was 112 % of control.
In the case of `c1cc2cc(-c3ccc4cc(C5=NCCN5)[nH]c4c3)[nH]c2cc1C1=NCCN1`, the T/C (dose: 25.0 mg/kg/injection, schedule: Q04DX003 (ip), vehicle: saline) was 108 % of control, the T/C (dose: 50.0 mg/kg/injection, schedule: Q04DX003 (ip), vehicle: saline) was 116 % of control and the T/C (dose: 200.0 mg/kg/injection, schedule: Q04DX003 (ip), vehicle: saline) was 184 % of control.
In the case of `COC(=O)C1(CC(=O)c2ccc(N3CCN(c4ccc(C(=O)CC5(C(=O)OC)NC(=S)NC(=O)C5C#N)cc4)CC3)cc2)NC(=S)NC(=O)C1C#N` (stereo not given), the T/C (dose: 7.5 mg/kg/injection, schedule: Q01DX005 (ip), vehicle: Klucel (hydroxypropylcellulose) (HPC)) was 96 % of control, the T/C [2] was 99 % of control and the T/C [3] was 98 % of control and 92 % of control.
With `N#CCC[P+](CCC#N)(CCC#N)CCN1C(=O)c2ccccc2C1=O` the T/C (dose: 0.78 mg/kg/injection, schedule: Q01DX009 (ip), vehicle: water) was 96 % of control, the T/C (dose: 1.56 mg/kg/injection, schedule: Q01DX009 (ip), vehicle: water) was 89 % of control and the T/C (dose: 3.13 mg/kg/injection, schedule: Q01DX009 (ip), vehicle: water) was 100 % of control. For the same molecule, the T/C (dose: 6.25 mg/kg/injection, schedule: Q01DX009 (ip), vehicle: water) was 115 % of control, the T/C (dose: 12.5 mg/kg/injection, schedule: Q01DX009 (ip), vehicle: water) was 108 % of control and the T/C (dose: 25.0 mg/kg/injection, schedule: Q01DX009 (ip), vehicle: water) was 102 % of control and 117 % of control. For the same molecule, the T/C (dose: 50.0 mg/kg/injection, schedule: Q01DX009 (ip), vehicle: water) was 100 % of control, the T/C (dose: 100.0 mg/kg/injection, schedule: Q01DX009 (ip), vehicle: water) was 100 % of control and the T/C (dose: 200.0 mg/kg/injection, schedule: Q01DX009 (ip), vehicle: water) was 101 % of control.
For `Cc1cccc(C)c1NC(=O)C1CN(c2c(C)cccc2C)C(=O)/C1=N\O` (stereo not given), the T/C [4] was 111 % of control, the T/C [5] was 108 % of control and the T/C [6] was 103 % of control.
In the case of `COC(=O)c1cc(-c2ccc(C)cc2)[nH]c(=O)c1C#N`, the T/C (dose: 60.0 mg/kg/injection, schedule: Q01DX005 (ip), vehicle: saline) was 103 % of control, the T/C (dose: 120.0 mg/kg/injection, schedule: Q01DX005 (ip), vehicle: saline) was 100 % of control and the T/C (dose: 240.0 mg/kg/injection, schedule: Q01DX005 (ip), vehicle: saline) was 108 % of control.
`CSc1nc(NC2OC(COC(C)=O)C(OC(C)=O)C(OC(C)=O)C2OC(C)=O)c(N=CC=Nc2c(NC3OC(COC(C)=O)C(OC(C)=O)C(OC(C)=O)C3OC(C)=O)nc(SC)n(C)c2=O)c(=O)n1C` (stereo not given) was tested, and the T/C (dose: 60.0 mg/kg/injection, schedule: Q01DX005 (ip), vehicle: saline with Tween-80) was 89 % of control and the T/C (dose: 120.0 mg/kg/injection, schedule: Q01DX005 (ip), vehicle: saline with Tween-80) was 91 % of control.
`CCOC(=O)/C=C1\SC(C)(C)C1NC(=O)OCc1ccccc1` (stereo not given) was tested, and the T/C [2] was 94 % of control, the T/C [3] was 103 % of control and the T/C (dose: 60.0 mg/kg/injection, schedule: Q01DX005 (ip), vehicle: Klucel (hydroxypropylcellulose) (HPC)) was 91 % of control and 93 % of control.
For `CCCCCCCCCC(C)CC(=O)NCCCN(C)CCCCN(C)C` (stereo not given) (tested in a mixture with another compound), the T/C (dose: 0.78 mg/kg/injection, schedule: Q01DX009 (ip), vehicle: saline with Tween-80) was 91 % of control, the T/C (dose: 1.56 mg/kg/injection, schedule: Q01DX009 (ip), vehicle: saline with Tween-80) was 94 % of control and the T/C (dose: 3.13 mg/kg/injection, schedule: Q01DX009 (ip), vehicle: saline with Tween-80) was 97 % of control. For the same molecule, the T/C (dose: 6.25 mg/kg/injection, schedule: Q01DX009 (ip), vehicle: saline with Tween-80) was 100 % of control.
`O=[N+]([O-])c1ccc(Cl)c(S(=O)(=O)Cl)c1` was tested, and the T/C [4] was 97 % of control, the T/C [5] was 88 % of control and the T/C [6] was 92 % of control.
`CC(C)(C)OC(=O)NNCC(=O)OCc1ccccc1` was tested, and the T/C (dose: 12.5 mg/kg/injection, schedule: Q01DX009 (ip), vehicle: other) was 96 % of control, the T/C [7] was 103 % of control and the T/C [8] was 111 % of control. The T/C [9] was 101 % of control and the T/C [10] was 99 % of control.
With `CC1(C)C(=O)C2=C(Nc3ccccc3C2C(C)(C)C)c2ccccc21` (stereo not given) the T/C [11] was 99 % of control, the T/C (dose: 100.0 mg/kg/injection, schedule: Q01DX005 (ip), vehicle: Klucel (hydroxypropylcellulose) (HPC)) was 93 % of control and the T/C (dose: 200.0 mg/kg/injection, schedule: Q01DX005 (ip), vehicle: Klucel (hydroxypropylcellulose) (HPC)) was 92 % of control.
`OC1CSCc2ccccc21` (stereo not given) was tested, and the T/C [7] was 109 % of control, the T/C [8] was 102 % of control and the T/C [9] was 109 % of control. For the same molecule, the T/C [10] was 108 % of control.
With `O=C1c2ccccc2C(=O)c2c1nc1sccn21` the T/C (dose: 3.12 mg/kg/injection, schedule: Q01DX005 (ip), vehicle: Klucel (hydroxypropylcellulose) (HPC)) was 104 % of control, the T/C (dose: 6.25 mg/kg/injection, schedule: Q01DX005 (ip), vehicle: Klucel (hydroxypropylcellulose) (HPC)) was 108 % of control and the T/C (dose: 12.5 mg/kg/injection, schedule: Q01DX005 (ip), vehicle: Klucel (hydroxypropylcellulose) (HPC)) was 102 % of control and 104 % of control. The T/C [11] was 105 % of control.
For `C/C=C1/CN2C3CC1C1(C(=O)OC)C(OC(C)=O)[C@]4(C[C@H]21)c1ccccc1N(C)C34` (stereo not given in full), the T/C (dose: 3.0 mg/kg/injection, schedule: Q01DX005 (ip), vehicle: Klucel (hydroxypropylcellulose) (HPC)) was 94 % of control, the T/C (dose: 6.0 mg/kg/injection, schedule: Q01DX005 (ip), vehicle: Klucel (hydroxypropylcellulose) (HPC)) was 100 % of control and the T/C (dose: 12.0 mg/kg/injection, schedule: Q01DX005 (ip), vehicle: Klucel (hydroxypropylcellulose) (HPC)) was 98 % of control. The T/C (dose: 24.0 mg/kg/injection, schedule: Q01DX005 (ip), vehicle: Klucel (hydroxypropylcellulose) (HPC)) was 106 % of control.
With `CN(C)C1CC/C=C/CC/C=C/CC[C@H]1O` (mixture of isomers) the T/C (dose: 12.5 mg/kg/injection, schedule: Q01DX005 (ip), vehicle: saline with Tween-80) was 100 % of control, the T/C (dose: 25.0 mg/kg/injection, schedule: Q01DX005 (ip), vehicle: saline with Tween-80) was 98 % of control and the T/C [4] was 99 % of control and 100 % of control.
With `O=C(CN1CCOCC1)Nc1nc(-c2ccc(Cl)cc2)cs1` the T/C (dose: 25.0 mg/kg/injection, schedule: Q01DX005 (ip), vehicle: DMSO) was 98 % of control, the T/C (dose: 50.0 mg/kg/injection, schedule: Q01DX005 (ip), vehicle: DMSO) was 100 % of control and the T/C (dose: 100.0 mg/kg/injection, schedule: Q01DX005 (ip), vehicle: DMSO) was 99 % of control. For the same molecule, the T/C (dose: 200.0 mg/kg/injection, schedule: Q01DX005 (ip), vehicle: DMSO) was 95 % of control and the T/C (dose: 400.0 mg/kg/injection, schedule: Q01DX005 (ip), vehicle: DMSO) was 98 % of control.
`N#Cc1c(-c2ccccc2)c(-c2ccccc2)nn(CCC(=O)O)c1=O` was tested, and the T/C (dose: 25.0 mg/kg/injection, schedule: Q04DX002 (ip), vehicle: distilled water + Tween-80) was 101 % of control, the T/C (dose: 50.0 mg/kg/injection, schedule: Q04DX002 (ip), vehicle: distilled water + Tween-80) was 102 % of control and the T/C (dose: 100.0 mg/kg/injection, schedule: Q04DX002 (ip), vehicle: distilled water + Tween-80) was 108 % of control.
`COc1ccc(/C(=N\N)C2=NNC3(CCCCC3)NN2)cc1` was tested, and the T/C (dose: 50.0 mg/kg/injection, schedule: Q01DX009 (ip), vehicle: Klucel (hydroxypropylcellulose) (HPC)) was 94 % of control, the T/C (dose: 100.0 mg/kg/injection, schedule: Q01DX009 (ip), vehicle: Klucel (hydroxypropylcellulose) (HPC)) was 93 % of control and the T/C (dose: 200.0 mg/kg/injection, schedule: Q01DX009 (ip), vehicle: Klucel (hydroxypropylcellulose) (HPC)) was 96 % of control.
`COC(=O)CCCCCCCCCCCCCCCCCCCCCCCCCCCCCCCCC(=O)OC` was tested, and the T/C [1] was 88 % of control, the T/C (dose: 50.0 mg/kg/injection, schedule: Q01DX001 (ip), vehicle: Klucel (hydroxypropylcellulose) (HPC)) was 88 % of control and the T/C (dose: 100.0 mg/kg/injection, schedule: Q01DX001 (ip), vehicle: Klucel (hydroxypropylcellulose) (HPC)) was 87 % of control.
With `CCOC(=O)c1ccc(NN=NCCF)cc1` the T/C (dose: 6.25 mg/kg/injection, schedule: Q01DX005 (ip), vehicle: distilled water + Tween-80) was 160 % of control, the T/C (dose: 12.5 mg/kg/injection, schedule: Q01DX005 (ip), vehicle: distilled water + Tween-80) was 252 % of control and the T/C (dose: 25.0 mg/kg/injection, schedule: Q01DX005 (ip), vehicle: distilled water + Tween-80) was 256 % of control and 275 % of control.

From PubChem BioAssay AID330 (DTP/NCI, 2004)
